Assay: Pt-BP pH stability assessed by 31P NMR
Assay type: physicochemical
Conditions: 120 mM NaCl, D2O, 37 °C
Description: ^31P NMR spectra were recorded on a Bruker Avance III […] instrument. Standard pulse sequences were used for ^31P{1H} (121.5 MHz) spectra. Chemical shifts (^31P) were referenced to external H3PO4 (85% w/w; 0 ppm). A Crison Micro-pH meter Model 2002, equipped with Crison microcombination electrodes (5- and 3-mm diameter) and calibrated with Crison standard buffer solution at pH 4.01, 7.02, and 10.00, was used for pH measurements. The pH readings from the pH meter for D2O solutions are indicated as pD values and are uncorrected for the effect of deuterium on glass electrodes. The stability of Pt-BP in buffered solutions at 37 °C was assessed by ^31P NMR spectroscopy as previously reported. Pt-BP (∼4 mg) was dissolved in 0.8 mL of D2O containing (i) 50 mM 4-(2-hydroxyethyl)-1-piperazineethanesulfonic acid) (HEPES) buffer (pD = 7.4) and 120 mM NaCl or (ii) 50 mM 2-(N-morpholino)ethanesulfonic acid (MES) buffer (pD = 5.25) and 120 mM NaCl. The resulting two solutions were transferred into NMR tubes and maintained at 37 °C. ^31P NMR spectra were recorded over a period of 15 days. The relative concentrations of the individual species in solution were deduced from integration of the ^31P signals.
To investigate the stability of Pt-BP in near-physiological conditions, we utilized a medium consisting of D2O containing HEPES buffer (50 mM, pH = 7.4) and NaCl (120 mM) at 37 °C, in which we analyzed Pt-BP stability by ^31P-NMR spectroscopy. […] Two other asymmetrical species are visible in the ^31P-NMR spectrum recorded after 3 h as evidenced by the two pairs of doublets falling at 28.15 and 22.98 ppm and 26.25 and 21.51 ppm (indicated by the black squares and diamonds in Supplement Fig. 2A). […]
To simulate the acidic environment in tumor tissue^3,4, we explored the stability of Pt-BP complexes at pD = 5.25 at 37 °C by ^31P-NMR spectroscopy (Supplement Fig. 2B). […] However, the formation of M was slower at acidic pD, while its hydrolysis, with concomitant formation of free bisphosphonate (BP), was faster than at pD 7.4 since Pt-BP and BP were detected after 48 h (Supplement Fig. 2B).

## NCCN.NCCN.O.O.O.O=S(=O)([O-])O.[NH3+]CC1(O)P2(=O)[O][Pt][O]P1(=O)[O][Pt][O]2 (stereo not drawn) [Pt-BP, dinuclear bis<ethylenediamineplatinum(II) > -2-amino-1-hydroxyethane-1,1-diyl-bisphosphonate complex]
pD 5.25, 50 mM MES
  time of release of both Pt(en) moieties (free BP detected): 48 h
pD 7.4, 50 mM HEPES
  time after which no traces of the starting Pt-BP complex were observed: ≤ 24 h
  time of release of the second Pt(en) moiety (appearance of free BP): 96 h

Source: article PMC7125202, “Targeting of radioactive platinum-bisphosphonate anticancer drugs to bone of high metabolic activity” (Scientific Reports, 2020)
